Literature values in US20260256768A1, “DRY POWDER COMPOSITIONS OF BEDAQUILINE AND SALTS AND METHODS OF USE THEREOF” (Insmed Incorporated, priority 2022, published 2026).

Columns and labels:
lung tumor = settings: animal model
[1] = test system: MCF7 breast cancer cells-derived cancer stem-like cells
[2] = test system: non-small cell lung cancer cell lines; settings: two non-small cell lung cancer cell lines
cancer metastasis = settings: in vivo

In the case of `COc1nc2ccc(Br)cc2cc1[C@@H](c1ccccc1)[C@@](O)(CCN(C)C)c1cccc2ccccc12` [bedaquiline, (1R,2S)-1-(6-bromo-2-methoxyquinolin-3-yl)-4-(dimethylamino)-2-naphthalen-1-yl-1-phenylbutan-2-ol], the “effect on lung tumor growth and angiogenesis” value (lung tumor) is listed as “inhibit lung tumor growth and angiogenesis”, the “effect on propagation and expansion of cancer stem-like cells” value [1] is listed as “block the propagation and expansion” and the cytotoxicity [2] is listed as “cytotoxic properties”. For the same compound, the “effect on cancer metastasis” value (cancer metastasis) was “inhibit cancer metastasis”.
